Laboratory results: the CheMixHub viscosity set
Several values for one entry are separate records, joined by “and”; a condition that tells them apart may be missing. Equal entries are not always repeated.

Assay: xn = mol fraction of the nth substance listed

C1CCOC1 + CCCCCC
Conditions | viscosity [mPa·s]
293.15 K, 101 kPa, x1 = 0.1171 | 0.3234
293.15 K, 101 kPa, x1 = 0.23 | 0.3356
293.15 K, 101 kPa, x1 = 0.3386 | 0.349
293.15 K, 101 kPa, x1 = 0.4434 | 0.36
293.15 K, 101 kPa, x1 = 0.5444 | 0.3797
293.15 K, 101 kPa, x1 = 0.6418 | 0.4007
293.15 K, 101 kPa, x1 = 0.736 | 0.4207
293.15 K, 101 kPa, x1 = 0.8269 | 0.442
293.15 K, 101 kPa, x1 = 0.9149 | 0.465
298 K, 101 kPa, x2 = 0.0984 | 0.431
298 K, 101 kPa, x2 = 0.1946 | 0.407
298 K, 101 kPa, x2 = 0.2979 | 0.387
298 K, 101 kPa, x2 = 0.3518 | 0.374
298 K, 101 kPa, x2 = 0.4012 | 0.365
298 K, 101 kPa, x2 = 0.4477 | 0.357
298 K, 101 kPa, x2 = 0.4775 | 0.352
298 K, 101 kPa, x2 = 0.5496 | 0.342
298 K, 101 kPa, x2 = 0.6159 | 0.333
298 K, 101 kPa, x2 = 0.6436 | 0.33
298 K, 101 kPa, x2 = 0.7063 | 0.323
298 K, 101 kPa, x2 = 0.7549 | 0.318
298 K, 101 kPa, x2 = 0.7901 | 0.314
298 K, 101 kPa, x2 = 0.9039 | 0.303
298.15 K, 101 kPa, x1 = 0.1171 | 0.3025
298.15 K, 101 kPa, x1 = 0.23 | 0.3142
298.15 K, 101 kPa, x1 = 0.3386 | 0.3258
298.15 K, 101 kPa, x1 = 0.4434 | 0.3381
298.15 K, 101 kPa, x1 = 0.5444 | 0.357
298.15 K, 101 kPa, x1 = 0.6418 | 0.3736
298.15 K, 101 kPa, x1 = 0.736 | 0.3943
298.15 K, 101 kPa, x1 = 0.8269 | 0.415
298.15 K, 101 kPa, x1 = 0.9149 | 0.4365
303.15 K, 101.33 kPa, x1 = 0.0971 | 0.285
303.15 K, 101.33 kPa, x1 = 0.1966 | 0.295
303.15 K, 101.33 kPa, x1 = 0.3001 | 0.307
303.15 K, 101.33 kPa, x1 = 0.4 | 0.32
303.15 K, 101.33 kPa, x1 = 0.5034 | 0.334
303.15 K, 101.33 kPa, x1 = 0.5974 | 0.349
303.15 K, 101.33 kPa, x1 = 0.7066 | 0.369
303.15 K, 101.33 kPa, x1 = 0.7889 | 0.386
303.15 K, 101.33 kPa, x1 = 0.8992 | 0.41

CC(C)=O + CCCCCC
298.15 K, 101 kPa
Conditions | viscosity [mPa·s]
x1 = 0.1416 | 0.303
x1 = 0.2707 | 0.3137
x1 = 0.3888 | 0.3047
x1 = 0.4974 | 0.2983
x1 = 0.5975 | 0.3043
x1 = 0.6901 | 0.3039
x1 = 0.776 | 0.2984
x1 = 0.8559 | 0.3113
x1 = 0.9304 | 0.3144

c1ccc2ccccc2c1 + CCCCCC
viscosity
Conditions | 298.15 K | 303.15 K | 308.15 K | 313.15 K | 318.15 K
101 kPa, x1 = 0.09526 | 0.3806 mPa·s | 0.3636 mPa·s | 0.3455 mPa·s | 0.331 mPa·s | 0.3166 mPa·s
101 kPa, x1 = 0.1771 | – | 0.4135 mPa·s | 0.3922 mPa·s | 0.3737 mPa·s | 0.3567 mPa·s
101.33 kPa, x1 = 0.09526 | 0.3806 mPa·s | 0.3636 mPa·s and 0.3636 mPa·s | 0.3455 mPa·s | 0.331 mPa·s | 0.3166 mPa·s and 0.3166 mPa·s
101.33 kPa, x1 = 0.1185 | – | 0.3813 mPa·s | – | – | 0.3268 mPa·s
101.33 kPa, x1 = 0.1464 | – | 0.3926 mPa·s | – | – | 0.3406 mPa·s
101.33 kPa, x1 = 0.1771 | – | 0.4135 mPa·s | – | – | 0.3567 mPa·s
101.33 kPa, x1 = 0.18 | – | 0.4135 mPa·s | 0.3922 mPa·s | 0.3737 mPa·s | 0.3567 mPa·s
101.33 kPa, x1 = 0.2165 | – | – | – | – | 0.3785 mPa·s

CCCCCCCCC(=O)O + CCCCCC(=O)[O-].[Na+]
100 kPa, x2 = 0.3
Conditions | viscosity [mPa·s]
293.15 K | 280.5
298.15 K | 209
303.15 K | 158.8
308.15 K | 122.9
313.15 K | 96.5
318.15 K | 76.9
323.15 K | 62.2

C1CCOC1 + CCCCCCC
viscosity [mPa·s], 101 kPa
Conditions | x1 = 0.1338 | x1 = 0.2578 | x1 = 0.3733 | x1 = 0.4809 | x1 = 0.5815 | x1 = 0.6758 | x1 = 0.7643 | x1 = 0.8475 | x1 = 0.926
293.15 K | 0.403 | 0.4075 | 0.413 | 0.4191 | 0.4285 | 0.4385 | 0.4495 | 0.4619 | 0.4751
298.15 K | 0.3861 | 0.3891 | 0.3935 | 0.3984 | 0.4061 | 0.4146 | 0.4242 | 0.4356 | 0.4465

CC(C)=O + CCCCCCC
296 K, 101.3 kPa
Conditions | viscosity [mPa·s]
x1 = 0.0795 | 0.385
x1 = 0.1252 | 0.377
x1 = 0.1699 | 0.37
x1 = 0.2532 | 0.362
x1 = 0.3008 | 0.358
x1 = 0.3956 | 0.351
x1 = 0.4536 | 0.347
x1 = 0.5061 | 0.342
x1 = 0.6193 | 0.333
x1 = 0.6981 | 0.328
x1 = 0.7504 | 0.321
x1 = 0.8116 | 0.316
x1 = 0.8666 | 0.314
x1 = 0.9144 | 0.309
x1 = 0.9678 | 0.311

Cc1ccccc1 + CCCCCCC
298.15 K, 101 kPa
Conditions | viscosity [mPa·s]
x2 = 0.4771 | 0.4775
x2 = 0.4859 | 0.476
x2 = 0.4953 | 0.474
x2 = 0.4983 | 0.4735
x2 = 0.4996 | 0.473
x2 = 0.5045 | 0.472
x2 = 0.5106 | 0.471
x2 = 0.5179 | 0.47
x2 = 0.5212 | 0.469
x2 = 0.5328 | 0.467
x2 = 0.5408 | 0.4655
x2 = 0.55 | 0.464
x2 = 0.561 | 0.4615
x2 = 0.579 | 0.458
x2 = 0.603 | 0.4535

COc1ccccc1 + CCCCCCCCCCCC
viscosity [mPa·s], 101.3 kPa
Conditions | x1 = 0.1618 | x1 = 0.2902 | x1 = 0.3869 | x1 = 0.4735 | x1 = 0.5603 | x1 = 0.7159 | x1 = 0.843 | x1 = 0.9414
293.15 K | 1.324 | 1.228 | 1.17 | 1.125 | 1.092 | 1.023 | – | –
303.15 K | 1.123 | 1.048 | – | 0.964 | 0.94 | 0.903 | 0.89 | 0.902
313.15 K | 0.967 | 0.908 | 0.872 | 0.843 | 0.821 | 0.791 | 0.781 | 0.79
323.15 K | 0.844 | 0.797 | 0.768 | 0.744 | 0.726 | 0.701 | 0.692 | 0.699

CCCCCCCCC(=O)O + CCCCCCCCCCCC(=O)O
100 kPa, x2 = 0.25
Conditions | viscosity [mPa·s]
293.15 K | 10.12
298.15 K | 8.636
303.15 K | 7.443
308.15 K | 6.47
313.15 K | 5.669
318.15 K | 5.003
323.15 K | 4.444

CCCCCCCCC(=O)O + CCCCCCCCCCCC(=O)[O-].[Na+]
100 kPa, x2 = 0.2
Conditions | viscosity [mPa·s]
293.15 K | 68.61
298.15 K | 54.38
303.15 K | 43.69
308.15 K | 35.55
313.15 K | 29.28
318.15 K | 24.38
323.15 K | 20.51

COc1ccccc1 + CCCCCCCCCCCCCCCC
viscosity [mPa·s], 101.3 kPa
Conditions | x1 = 0.1745 | x1 = 0.2566 | x1 = 0.3849 | x1 = 0.4725 | x1 = 0.5679 | x1 = 0.6889 | x1 = 0.8311 | x1 = 0.944
293.15 K | 2.794 | 2.566 | 2.193 | 1.975 | 1.773 | 1.51 | 1.279 | 1.131
303.15 K | 2.261 | 2.079 | 1.806 | 1.64 | 1.478 | 1.286 | 1.084 | 0.97
313.15 K | 1.866 | 1.73 | 1.518 | 1.387 | 1.258 | 1.092 | 0.942 | 0.845
323.15 K | 1.571 | 1.436 | 1.296 | 1.192 | 1.088 | 0.964 | 0.836 | 0.747

CCCCCCCCCCCCCCCCC + CCCCCCCCCCO
100 kPa, x1 = 0.076
Conditions | viscosity [mPa·s]
298.2 K | 10.21
308.2 K | 6.94
318.2 K | 4.87

COc1ccccc1 + CCCCCCCCO
viscosity [mPa·s], 101.33 kPa
Conditions | x1 = 0.1001 | x1 = 0.2 | x1 = 0.3002 | x1 = 0.3998 | x1 = 0.5 | x1 = 0.6002 | x1 = 0.7001 | x1 = 0.8002 | x1 = 0.9
303.15 K | 4.86 | 3.795 | 3.074 | 2.432 | 1.966 | 1.576 | 1.217 | 1.108 | 0.968
313.15 K | 3.589 | 2.872 | 2.342 | 1.922 | 1.561 | 1.28 | 1.014 | 0.934 | 0.831
323.15 K | 2.702 | 2.163 | 1.863 | 1.547 | 1.288 | 1.054 | 0.843 | 0.789 | 0.725
